Series [1] relates to Hep 3B2. The experiment in a line: Cytotoxicity against human Hep3B cells assessed as cell viability at 1 to 20 uM incubated for 24 hrs by MTT assay. The format is cell-based. Particulars: hep 3b2, 24 h.
Series [2] addresses Signal transducer and activator of transcription 3 (Homo sapiens) (UniProt P40763). Put plainly: Inhibition of IL6-induced STAT3 phosphorylation in human Hep3B cells incubated for 12 hrs in presence of IL6 by luciferase reporter gene assay. The format is cell-based.
For series [3], the system named is Hep 3B2. The experiment in a line: Inhibition of IL-6-induced CRP gene expression in human Hep3B cells pre-incubated for 1 hr before IL-6 stimulation for 6 hrs by RT-PCR method. It counts as functional, cell-based.
Series [4] relates to Hep 3B2. The experiment in a line: Inhibition of IL-6-induced IL-1beta gene expression in human Hep3B cells pre-incubated for 1 hr before IL-6 stimulation for 6 hrs by RT-PCR method. It counts as functional, cell-based.
Series [5] relates to Hep 3B2. Put plainly: Inhibition of IL-6-induced ICAM1 gene expression in human Hep3B cells pre-incubated for 1 hr before IL-6 stimulation for 6 hrs by RT-PCR method. It counts as functional, cell-based.
Series [6] relates to Hep 3B2. Put plainly: Inhibition of IL-6-induced SOCS3 gene expression in human Hep3B cells pre-incubated for 1 hr before IL-6 stimulation for 6 hrs by RT-PCR method. It counts as functional, cell-based.
The target in series [7] is Signal transducer and activator of transcription 3 (Homo sapiens) (UniProt P40763). Put plainly: Inhibition of IL-6-induced pSTAT3 nuclear translocation in human Hep3B cells at 10 and 20 uM pre-incubated for 1 hr before IL-6 stimulation for 30 mins by DAPI staining based immunofluorescence microscopy. It counts as cell-based.
For series [8] the target is unchanged. Put plainly: Inhibition of IL-6-induced pSTAT3 nuclear translocation in human U266 cells at 20 uM pre-incubated for 1 hr before IL-6 stimulation for 30 mins by DAPI staining based immunofluorescence microscopy. The format is cell-based.
For series [9] the target is unchanged. The experiment in a line: Inhibition of IL-6-induced STAT3 phosphorylation at Tyr 705 residue in human U266 cells at 10 to 20 uM pre-incubated for 1 hr before IL-6 stimulation for 15 mins by Western blot analysis. The format is cell-based.
The target in series [10] is T1, Interleukin-6 receptor subunit beta (Homo sapiens) (UniProt P40189).
T1 sequence (whole entry): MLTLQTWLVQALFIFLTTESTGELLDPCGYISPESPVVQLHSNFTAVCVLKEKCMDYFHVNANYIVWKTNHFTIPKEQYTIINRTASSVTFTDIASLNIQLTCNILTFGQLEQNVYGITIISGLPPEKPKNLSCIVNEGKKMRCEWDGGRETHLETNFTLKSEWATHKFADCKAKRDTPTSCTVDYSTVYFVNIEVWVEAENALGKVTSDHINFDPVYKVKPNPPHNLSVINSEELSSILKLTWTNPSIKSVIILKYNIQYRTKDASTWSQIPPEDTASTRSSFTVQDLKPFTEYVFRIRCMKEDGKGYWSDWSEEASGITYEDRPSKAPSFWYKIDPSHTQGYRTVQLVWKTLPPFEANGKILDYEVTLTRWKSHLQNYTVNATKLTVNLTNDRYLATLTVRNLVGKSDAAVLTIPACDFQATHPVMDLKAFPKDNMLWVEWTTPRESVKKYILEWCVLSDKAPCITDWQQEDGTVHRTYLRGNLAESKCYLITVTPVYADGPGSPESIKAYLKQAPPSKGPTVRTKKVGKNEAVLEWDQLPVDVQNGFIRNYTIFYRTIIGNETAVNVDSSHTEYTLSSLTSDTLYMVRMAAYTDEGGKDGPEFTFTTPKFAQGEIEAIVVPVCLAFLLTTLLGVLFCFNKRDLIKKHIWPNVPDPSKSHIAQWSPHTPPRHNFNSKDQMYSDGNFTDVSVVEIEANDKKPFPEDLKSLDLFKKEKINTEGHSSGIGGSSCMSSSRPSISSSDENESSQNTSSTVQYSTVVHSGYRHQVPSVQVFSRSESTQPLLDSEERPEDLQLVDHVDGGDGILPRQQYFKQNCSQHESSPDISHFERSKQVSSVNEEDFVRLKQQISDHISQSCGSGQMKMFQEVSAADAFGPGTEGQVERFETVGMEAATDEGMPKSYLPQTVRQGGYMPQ
The experiment in a line: Inhibition of IL-6-induced gp130 phosphorylation in human U266 cells at 10 and 20 uM pre-incubated for 1 hr before IL-6 stimulation for 10 to 15 mins by Western blot analysis. The format is cell-based.

Series [11] has as its target Tyrosine-protein kinase JAK2 (Homo sapiens) (UniProt O60674). Put plainly: Inhibition of IL-6-induced JAK2 phosphorylation at Tyr1007/1008 residues in human U266 cells at 10 and 20 uM pre-incubated for 1 hr before IL-6 stimulation for 10 to 15 mins by Western blot analysis. The format is cell-based.
The species entered for series [12] is Homo sapiens. The experiment in a line: Inhibition of IL-6-induced ERK phosphorylation at Tyr202/204 residues in human U266 cells at 10 to 20 uM pre-incubated for 1 hr before IL-6 stimulation for 10 to 15 mins by Western blot analysis. It counts as cell-based.
The species named for series [13] is Homo sapiens. The experiment in a line: Inhibition of IL-6 binding to human recombinant soluble IL-6R incubated for 2 hrs by solid phase ligand binding assay.

Structures are written as SMILES. Calls of active or inactive are those of the source. The rule behind the calls is not given here.

Signal transducer and activator of transcription 3 (Homo sapiens), sequence (P40763 whole entry): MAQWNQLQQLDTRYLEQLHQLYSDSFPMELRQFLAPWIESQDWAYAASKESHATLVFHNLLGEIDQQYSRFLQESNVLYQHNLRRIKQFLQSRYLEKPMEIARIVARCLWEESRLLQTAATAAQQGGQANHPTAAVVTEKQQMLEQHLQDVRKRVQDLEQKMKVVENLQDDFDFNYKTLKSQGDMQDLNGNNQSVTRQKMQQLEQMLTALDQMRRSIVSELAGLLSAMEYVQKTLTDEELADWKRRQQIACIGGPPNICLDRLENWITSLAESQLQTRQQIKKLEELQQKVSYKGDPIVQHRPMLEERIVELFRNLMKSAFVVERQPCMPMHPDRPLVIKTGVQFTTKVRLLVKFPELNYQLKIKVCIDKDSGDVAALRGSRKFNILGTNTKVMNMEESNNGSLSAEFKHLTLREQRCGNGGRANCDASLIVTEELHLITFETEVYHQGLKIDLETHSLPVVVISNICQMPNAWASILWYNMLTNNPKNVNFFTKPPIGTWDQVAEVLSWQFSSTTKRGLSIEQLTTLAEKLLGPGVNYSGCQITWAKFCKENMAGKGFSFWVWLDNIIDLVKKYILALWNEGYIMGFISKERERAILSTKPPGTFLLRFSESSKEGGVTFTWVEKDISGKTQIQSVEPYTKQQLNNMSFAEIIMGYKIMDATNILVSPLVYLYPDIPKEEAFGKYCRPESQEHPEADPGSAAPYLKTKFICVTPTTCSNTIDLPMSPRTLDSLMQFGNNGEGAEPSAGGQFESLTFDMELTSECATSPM
Tyrosine-protein kinase JAK2 (Homo sapiens), sequence (O60674 whole entry): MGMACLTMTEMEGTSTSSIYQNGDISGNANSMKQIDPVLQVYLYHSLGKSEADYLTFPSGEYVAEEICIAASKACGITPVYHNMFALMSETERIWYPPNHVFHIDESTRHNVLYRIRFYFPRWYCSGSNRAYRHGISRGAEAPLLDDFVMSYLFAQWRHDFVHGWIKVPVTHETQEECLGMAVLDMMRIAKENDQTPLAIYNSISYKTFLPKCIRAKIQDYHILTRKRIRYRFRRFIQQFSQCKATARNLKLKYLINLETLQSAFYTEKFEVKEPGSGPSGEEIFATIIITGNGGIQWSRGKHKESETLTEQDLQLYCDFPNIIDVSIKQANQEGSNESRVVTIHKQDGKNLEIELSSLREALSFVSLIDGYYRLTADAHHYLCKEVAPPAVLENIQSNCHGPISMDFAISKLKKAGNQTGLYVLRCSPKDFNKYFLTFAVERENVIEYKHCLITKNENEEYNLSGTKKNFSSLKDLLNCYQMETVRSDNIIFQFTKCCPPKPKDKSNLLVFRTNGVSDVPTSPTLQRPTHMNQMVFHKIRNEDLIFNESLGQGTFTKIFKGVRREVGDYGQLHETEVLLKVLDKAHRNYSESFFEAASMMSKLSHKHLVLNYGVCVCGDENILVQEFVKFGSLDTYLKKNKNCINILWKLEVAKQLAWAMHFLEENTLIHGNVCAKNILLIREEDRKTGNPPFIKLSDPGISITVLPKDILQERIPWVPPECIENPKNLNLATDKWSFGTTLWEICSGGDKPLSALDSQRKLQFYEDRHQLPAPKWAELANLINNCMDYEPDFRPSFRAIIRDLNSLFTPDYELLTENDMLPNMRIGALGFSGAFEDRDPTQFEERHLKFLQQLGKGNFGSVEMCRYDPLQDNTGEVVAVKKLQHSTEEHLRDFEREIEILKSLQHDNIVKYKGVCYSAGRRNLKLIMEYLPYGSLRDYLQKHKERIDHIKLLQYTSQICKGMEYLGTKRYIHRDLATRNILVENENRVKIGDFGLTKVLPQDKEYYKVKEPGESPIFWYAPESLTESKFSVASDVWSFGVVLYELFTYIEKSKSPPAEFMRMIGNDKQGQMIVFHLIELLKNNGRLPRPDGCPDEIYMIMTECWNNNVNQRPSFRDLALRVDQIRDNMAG

With `COc1cc2oc(-c3ccc(O)c(O)c3)cc(=O)c2c(O)c1OC` [CIRSILIOL], in the series with Hep 3B2 [1], the Activity result was “Non-Toxic”. In addition, the inhibition entry (in series [2]; in the series on Hep 3B2 [3]; in the series with Hep 3B2 [4]; in the series with Hep 3B2 [5]; with Hep 3B2 [6]; in series [10]) was “Dose-dependent effect” throughout. Besides, the inhibition entry in [11] is “Dose-dependent effect”. Also, the inhibition result (in series [7]; in series [8]; in series [9]; in the series listed under Homo sapiens [12]) was “Active” in each case. The inhibition entry in the series filed under Homo sapiens [13] was “inactive”.

The values above are taken from ChEMBL document CHEMBL4387725, “In vitro inhibitory effects of cirsiliol on IL-6-induced STAT3 activation through anti-inflammatory activity” (Bioorg Med Chem Lett, 2019).
